Data taken from ChEMBL document CHEMBL4507284, “Data for DCP probe BI-1230” (2021).

What was measured:
Conditions in all cases: Compound concentration 1000.0 nM
[1] = tested on: Tyrosine-protein kinase ABL1 (Homo sapiens), P00519 [Y253F]
[2] = molecular target: Activin receptor type-1B (Homo sapiens) (UniProt P36896)
[3] = molecular target: NUAK family SNF1-like kinase 1 (Homo sapiens) (UniProt O60285)
[4] = molecular target: BMP-2-inducible protein kinase (Homo sapiens) (UniProt Q9NSY1)
[5] = molecular target: Bone morphogenetic protein receptor type-1A (Homo sapiens) (UniProt P36894)
Bone morphogenetic protein receptor type-1A (Homo sapiens), sequence (P36894 whole entry): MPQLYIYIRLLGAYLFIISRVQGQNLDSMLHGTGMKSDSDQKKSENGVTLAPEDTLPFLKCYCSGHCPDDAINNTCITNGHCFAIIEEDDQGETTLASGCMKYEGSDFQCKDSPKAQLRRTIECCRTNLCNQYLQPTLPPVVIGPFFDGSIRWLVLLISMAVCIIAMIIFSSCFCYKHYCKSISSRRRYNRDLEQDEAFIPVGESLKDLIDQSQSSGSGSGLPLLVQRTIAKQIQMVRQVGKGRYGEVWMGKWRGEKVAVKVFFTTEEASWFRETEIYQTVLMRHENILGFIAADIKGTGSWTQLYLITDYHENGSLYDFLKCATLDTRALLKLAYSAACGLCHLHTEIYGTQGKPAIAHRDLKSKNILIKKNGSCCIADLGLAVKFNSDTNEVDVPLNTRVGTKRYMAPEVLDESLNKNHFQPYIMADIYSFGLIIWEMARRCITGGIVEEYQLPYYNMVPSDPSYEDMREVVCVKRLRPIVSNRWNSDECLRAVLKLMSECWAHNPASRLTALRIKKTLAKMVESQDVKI

[6] = molecular target: Cytoplasmic tyrosine-protein kinase BMX (Homo sapiens) (UniProt P51813)
[7] = molecular target: Serine/threonine-protein kinase B-raf (Homo sapiens) (UniProt P15056)
[8] = molecular target: Calcium/calmodulin-dependent protein kinase type 1D (Homo sapiens) (UniProt Q8IU85)
[9] = molecular target: Calcium/calmodulin-dependent protein kinase type 1G (Homo sapiens) (UniProt Q96NX5)
[10] = molecular target: Cyclin-dependent kinase 11B (Homo sapiens) (UniProt P21127)
[11] = molecular target: Cyclin-dependent kinase 8 (Homo sapiens) (UniProt P49336)
[12] = molecular target: Cyclin-dependent kinase-like 1 (Homo sapiens) (UniProt Q00532)
[13] = molecular target: Serine/threonine-protein kinase Chk1 (Homo sapiens) (UniProt O14757)
[14] = molecular target: Serine/threonine-protein kinase Chk2 (Homo sapiens) (UniProt O96017)
[15] = molecular target: Eukaryotic translation initiation factor 2-alpha kinase 1 (Homo sapiens) (UniProt Q9BQI3)
Eukaryotic translation initiation factor 2-alpha kinase 1 (Homo sapiens), sequence (Q9BQI3 whole entry): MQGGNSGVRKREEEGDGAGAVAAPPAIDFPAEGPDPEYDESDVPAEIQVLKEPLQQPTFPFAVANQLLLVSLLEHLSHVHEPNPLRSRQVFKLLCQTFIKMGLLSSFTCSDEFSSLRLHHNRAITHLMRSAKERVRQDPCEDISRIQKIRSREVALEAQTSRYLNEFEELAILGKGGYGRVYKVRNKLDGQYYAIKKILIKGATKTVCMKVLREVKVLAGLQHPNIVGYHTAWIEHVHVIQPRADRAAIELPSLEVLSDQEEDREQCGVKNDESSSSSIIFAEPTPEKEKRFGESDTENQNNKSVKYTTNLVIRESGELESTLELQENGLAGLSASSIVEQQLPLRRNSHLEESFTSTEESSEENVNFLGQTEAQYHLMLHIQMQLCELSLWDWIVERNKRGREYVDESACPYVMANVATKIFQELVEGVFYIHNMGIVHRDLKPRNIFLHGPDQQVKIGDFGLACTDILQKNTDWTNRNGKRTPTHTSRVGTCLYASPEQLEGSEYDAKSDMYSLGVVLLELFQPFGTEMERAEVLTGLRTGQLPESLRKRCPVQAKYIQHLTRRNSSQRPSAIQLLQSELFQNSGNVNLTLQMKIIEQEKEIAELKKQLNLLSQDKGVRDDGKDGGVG

[16] = molecular target: Ephrin type-A receptor 5 (Homo sapiens) (UniProt P54756)
[17] = molecular target: Ephrin type-B receptor 3 (Homo sapiens) (UniProt P54753)
[18] = molecular target: Receptor tyrosine-protein kinase erbB-4 (Homo sapiens) (UniProt Q15303)
[19] = tested on: Receptor-type tyrosine-protein kinase FLT3 (Homo sapiens), P36888 [K663Q]
[20] = tested on: Receptor-type tyrosine-protein kinase FLT3 (Homo sapiens), P36888 [N841I]
[21] = molecular target: Tyrosine-protein kinase FRK (Homo sapiens) (UniProt P42685)
[22] = molecular target: Tyrosine-protein kinase HCK (Homo sapiens) (UniProt P08631)
[23] = molecular target: Mitogen-activated protein kinase 10 (Homo sapiens) (UniProt P53779)
[24] = tested on: Mast/stem cell growth factor receptor Kit (Homo sapiens), P10721 [V559D,V654A]
[25] = molecular target: Serine/threonine-protein kinase LATS2 (Homo sapiens) (UniProt Q9NRM7)
[26] = molecular target: Serine/threonine-protein kinase MARK2 (Homo sapiens) (UniProt Q7KZI7)
[27] = molecular target: MAP/microtubule affinity-regulating kinase 3 (Homo sapiens) (UniProt P27448)
[28] = molecular target: Dual specificity mitogen-activated protein kinase kinase 4 (Homo sapiens) (UniProt P45985)
[29] = molecular target: Serine/threonine-protein kinase PAK 1 (Homo sapiens) (UniProt Q13153)
[30] = tested on: Phosphatidylinositol 4,5-bisphosphate 3-kinase catalytic subunit alpha isoform (Homo sapiens), P42336 [H1047L]
[31] = molecular target: Phosphatidylinositol 4,5-bisphosphate 3-kinase catalytic subunit delta isoform (Homo sapiens) (UniProt O00329)
Phosphatidylinositol 4,5-bisphosphate 3-kinase catalytic subunit delta isoform (Homo sapiens), sequence (O00329 whole entry, canonical isoform): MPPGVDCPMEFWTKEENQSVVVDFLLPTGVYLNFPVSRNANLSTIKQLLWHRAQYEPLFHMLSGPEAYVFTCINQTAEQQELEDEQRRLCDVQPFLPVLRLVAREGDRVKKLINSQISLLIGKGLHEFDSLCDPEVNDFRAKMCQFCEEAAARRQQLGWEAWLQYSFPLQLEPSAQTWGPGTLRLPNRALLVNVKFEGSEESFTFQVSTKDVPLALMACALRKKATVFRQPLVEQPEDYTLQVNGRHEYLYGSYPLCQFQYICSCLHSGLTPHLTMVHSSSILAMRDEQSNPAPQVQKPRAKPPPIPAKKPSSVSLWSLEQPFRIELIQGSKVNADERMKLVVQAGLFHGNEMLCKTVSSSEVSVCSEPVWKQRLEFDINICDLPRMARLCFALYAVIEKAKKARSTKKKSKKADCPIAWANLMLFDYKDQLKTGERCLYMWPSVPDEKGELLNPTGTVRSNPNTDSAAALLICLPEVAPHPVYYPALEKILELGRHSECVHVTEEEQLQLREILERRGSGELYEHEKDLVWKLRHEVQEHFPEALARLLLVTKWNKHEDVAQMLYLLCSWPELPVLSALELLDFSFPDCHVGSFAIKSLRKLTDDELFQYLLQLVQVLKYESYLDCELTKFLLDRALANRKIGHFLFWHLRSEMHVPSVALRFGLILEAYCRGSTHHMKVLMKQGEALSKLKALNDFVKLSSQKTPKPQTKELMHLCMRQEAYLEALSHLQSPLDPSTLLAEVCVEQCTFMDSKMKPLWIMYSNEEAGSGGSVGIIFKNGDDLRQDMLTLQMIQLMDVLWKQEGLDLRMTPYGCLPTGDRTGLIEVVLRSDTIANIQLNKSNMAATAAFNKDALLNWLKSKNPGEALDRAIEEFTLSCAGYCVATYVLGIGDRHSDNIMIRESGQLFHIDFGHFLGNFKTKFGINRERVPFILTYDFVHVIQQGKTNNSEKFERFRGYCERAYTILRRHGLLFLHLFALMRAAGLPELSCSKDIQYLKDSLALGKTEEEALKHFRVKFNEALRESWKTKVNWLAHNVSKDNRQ

[32] = molecular target: Phosphatidylinositol 4-kinase beta (Homo sapiens) (UniProt Q9UBF8)
Phosphatidylinositol 4-kinase beta (Homo sapiens), sequence (Q9UBF8 2-816 limits assumed): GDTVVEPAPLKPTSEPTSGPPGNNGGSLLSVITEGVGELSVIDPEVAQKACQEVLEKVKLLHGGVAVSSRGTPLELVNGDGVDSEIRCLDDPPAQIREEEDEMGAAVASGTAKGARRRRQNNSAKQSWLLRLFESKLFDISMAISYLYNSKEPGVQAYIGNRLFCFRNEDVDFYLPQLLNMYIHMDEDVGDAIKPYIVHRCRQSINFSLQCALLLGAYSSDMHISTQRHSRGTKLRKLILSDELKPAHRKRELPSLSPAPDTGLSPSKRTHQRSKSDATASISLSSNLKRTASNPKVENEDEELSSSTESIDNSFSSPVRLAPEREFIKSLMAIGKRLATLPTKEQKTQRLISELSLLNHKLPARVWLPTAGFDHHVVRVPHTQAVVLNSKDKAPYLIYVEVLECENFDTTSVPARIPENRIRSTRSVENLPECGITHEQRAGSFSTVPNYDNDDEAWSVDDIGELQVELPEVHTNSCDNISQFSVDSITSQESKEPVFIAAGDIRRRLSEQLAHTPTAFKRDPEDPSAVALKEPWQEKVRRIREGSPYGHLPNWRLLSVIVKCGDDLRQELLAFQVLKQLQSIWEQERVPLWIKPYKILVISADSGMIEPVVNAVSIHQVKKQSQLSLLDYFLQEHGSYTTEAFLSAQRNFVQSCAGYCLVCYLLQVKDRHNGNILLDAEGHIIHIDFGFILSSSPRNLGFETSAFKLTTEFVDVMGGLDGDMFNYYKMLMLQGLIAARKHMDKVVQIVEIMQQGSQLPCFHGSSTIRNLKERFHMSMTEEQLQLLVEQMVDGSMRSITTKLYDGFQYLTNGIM

[33] = molecular target: Protein kinase C theta type (Homo sapiens) (UniProt Q04759)
[34] = molecular target: Proto-oncogene tyrosine-protein kinase ROS (Homo sapiens) (UniProt P08922)
[35] = molecular target: Ribosomal protein S6 kinase alpha-4 (Homo sapiens) (UniProt O75676)
[36] = molecular target: Ribosomal protein S6 kinase alpha-3 (Homo sapiens) (UniProt P51812)
[37] = molecular target: Serine/threonine-protein kinase Sgk2 (Homo sapiens) (UniProt Q9HBY8)
[38] = molecular target: Proto-oncogene tyrosine-protein kinase Src (Homo sapiens) (UniProt P12931)
[39] = molecular target: Mitogen-activated protein kinase kinase kinase 7 (Homo sapiens) (UniProt O43318)
Mitogen-activated protein kinase kinase kinase 7 (Homo sapiens), sequence (O43318 whole entry): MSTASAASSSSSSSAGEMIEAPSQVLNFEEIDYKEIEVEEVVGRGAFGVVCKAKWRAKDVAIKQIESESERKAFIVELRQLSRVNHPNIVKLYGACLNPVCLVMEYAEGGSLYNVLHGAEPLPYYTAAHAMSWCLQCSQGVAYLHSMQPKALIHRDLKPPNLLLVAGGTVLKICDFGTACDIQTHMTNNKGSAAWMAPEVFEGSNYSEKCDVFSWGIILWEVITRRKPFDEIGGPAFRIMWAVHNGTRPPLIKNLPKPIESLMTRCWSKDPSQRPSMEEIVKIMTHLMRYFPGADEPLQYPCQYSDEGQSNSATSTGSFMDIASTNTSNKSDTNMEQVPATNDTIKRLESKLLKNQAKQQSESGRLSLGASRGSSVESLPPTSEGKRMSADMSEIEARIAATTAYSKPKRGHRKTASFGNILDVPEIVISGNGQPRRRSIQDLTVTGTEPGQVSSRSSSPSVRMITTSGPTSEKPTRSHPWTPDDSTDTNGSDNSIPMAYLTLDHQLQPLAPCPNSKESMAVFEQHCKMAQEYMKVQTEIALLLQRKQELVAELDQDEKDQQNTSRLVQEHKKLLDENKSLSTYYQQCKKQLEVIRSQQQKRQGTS

[40] = molecular target: Serine/threonine-protein kinase TAO1 (Homo sapiens) (UniProt Q7L7X3)
[41] = molecular target: TGF-beta receptor type-2 (Homo sapiens) (UniProt P37173)
TGF-beta receptor type-2 (Homo sapiens), sequence (P37173 whole entry): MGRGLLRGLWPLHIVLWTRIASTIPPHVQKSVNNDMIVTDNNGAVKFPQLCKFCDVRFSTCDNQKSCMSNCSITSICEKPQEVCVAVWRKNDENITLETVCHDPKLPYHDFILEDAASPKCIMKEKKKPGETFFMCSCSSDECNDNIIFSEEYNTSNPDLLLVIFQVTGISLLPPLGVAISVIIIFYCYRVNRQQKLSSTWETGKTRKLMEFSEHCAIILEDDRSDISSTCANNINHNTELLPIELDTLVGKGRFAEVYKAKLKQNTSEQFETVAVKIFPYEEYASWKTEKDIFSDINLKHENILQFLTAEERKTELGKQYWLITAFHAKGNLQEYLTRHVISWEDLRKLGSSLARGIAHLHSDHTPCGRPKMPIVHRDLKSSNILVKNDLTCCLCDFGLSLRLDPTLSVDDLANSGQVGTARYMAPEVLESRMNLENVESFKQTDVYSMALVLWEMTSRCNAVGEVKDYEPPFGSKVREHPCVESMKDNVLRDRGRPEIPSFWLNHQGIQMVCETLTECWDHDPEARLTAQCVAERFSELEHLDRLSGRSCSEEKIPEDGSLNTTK

[42] = molecular target: Tyrosine-protein kinase receptor TYRO3 (Homo sapiens) (UniProt Q06418)
[43] = molecular target: Serine/threonine-protein kinase ULK1 (Homo sapiens) (UniProt O75385)
[44] = molecular target: Serine/threonine-protein kinase 32A (Homo sapiens) (UniProt Q8WU08)
[45] = molecular target: Tyrosine-protein kinase Yes (Homo sapiens) (UniProt P07947)

Measured: residual activity

Activin receptor type-1B (Homo sapiens), sequence (P36896 whole entry): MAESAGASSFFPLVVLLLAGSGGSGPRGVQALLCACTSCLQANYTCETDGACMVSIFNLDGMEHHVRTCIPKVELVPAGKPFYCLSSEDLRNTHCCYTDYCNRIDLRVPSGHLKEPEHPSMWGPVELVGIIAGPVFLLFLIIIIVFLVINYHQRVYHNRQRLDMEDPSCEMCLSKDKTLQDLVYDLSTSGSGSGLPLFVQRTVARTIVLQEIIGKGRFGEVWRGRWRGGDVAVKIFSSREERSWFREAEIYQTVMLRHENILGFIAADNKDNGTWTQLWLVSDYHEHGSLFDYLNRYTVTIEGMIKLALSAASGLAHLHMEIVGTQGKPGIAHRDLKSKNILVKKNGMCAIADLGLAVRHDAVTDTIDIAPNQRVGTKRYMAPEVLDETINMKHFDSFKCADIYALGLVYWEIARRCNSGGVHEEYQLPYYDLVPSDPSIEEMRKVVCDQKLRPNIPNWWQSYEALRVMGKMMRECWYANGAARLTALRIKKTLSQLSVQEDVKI

COc1ccc2c(O[C@@H]3C[C@H]4C(=O)N[C@]5(C(=O)O)CC5/C=C\CCCCC[C@H](NC(=O)OC5CCCC5)C(=O)N4C3)cc(-c3csc(NC(=O)C(C)C)n3)nc2c1C (stereo not given in full) [BI 1230]
inactive: [1] 87% | [2] 100% | [3] 92% | [4] 90% | [5] 100% | [6] 57% | [7] 86% | [8] 100% | [9] 98% | [10] 99% | [11] 68% | [12] 99% | [13] 100% | [14] 94% | [15] 96% | [16] 97% | [17] 100% | [18] 100% | [19] 81% | [20] 89% | [21] 100% | [22] 100% | [23] 71% | [24] 74% | [25] 98% | [26] 100% | [27] 95% | [28] 100% | [29] 100% | [30] 79% | [31] 100% | [32] 71% | [33] 100% | [34] 100% | [35] 72% | [36] 82% | [37] 87% | [38] 100% | [39] 67% | [40] 96% | [41] 93% | [42] 100% | [43] 93% | [44] 78% | [45] 100%

O=C(N[C@H]1CCCCC/C=C\C2C[C@@]2(C(=O)O)NC(=O)[C@@H]2C[C@@H](Oc3ccncc3)CN2C1=O)OC1CCCC1 (stereo not given in full) [BI 1675]
inactive: [1] 100% | [2] 100% | [3] 99% | [4] 96% | [5] 100% | [6] 66% | [7] 100% | [8] 94% | [9] 76% | [10] 100% | [11] 66% | [12] 100% | [13] 79% | [14] 100% | [15] 100% | [16] 100% | [17] 100% | [18] 100% | [19] 85% | [20] 100% | [21] 100% | [22] 100% | [23] 81% | [24] 63% | [25] 100% | [26] 81% | [27] 100% | [28] 73% | [29] 89% | [30] 100% | [31] 92% | [32] 81% | [33] 100% | [34] 92% | [35] 85% | [36] 89% | [37] 100% | [38] 100% | [39] 77% | [40] 100% | [41] 85% | [42] 100% | [43] 100% | [44] 89% | [45] 100%
